Where “and” joins values, the source holds several entries; their conditions need not be identical. Equal entries are not always repeated. Inconclusive results and toxic doses are left out. Rule as the data show it: active = T/C of 150% or more; inactive = T/C below 125%.
Test system: L1210 leukemia ip in BDF1 mice, survival T/C
Assay: NCI In Vivo Anticancer Drug Screen. Data for tumor model L1210 Leukemia (intraperitoneal) in B6D2F1 (BDF1) mice
Settings: endpoint: mean survival time, higher = longer survival
How it was run: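 Tumor was transplanted into mice, which were then dosed with test compound or vehicle alone. Survival was recorded for each group, and the treated figure was expressed relative to the control figure.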

[1] = dose: 3.12 mg/kg/injection, schedule: Q01DX009 (ip), vehicle: saline
[2] = dose: 9.0 mg/kg/injection, schedule: Q01DX Z (ip), vehicle: carboxymethylcellulose (CMC)
[3] = dose: 12.5 mg/kg/injection, schedule: Q01DX009 (ip), vehicle: saline
[4] = dose: 50.0 mg/kg/injection, schedule: Q04DX003 (ip), vehicle: saline
[5] = dose: 100.0 mg/kg/injection, schedule: Q01DX009 (ip), vehicle: Klucel (hydroxypropylcellulose) (HPC)
[6] = dose: 200.0 mg/kg/injection, schedule: Q01DX009 (ip), vehicle: Klucel (hydroxypropylcellulose) (HPC)
[7] = dose: 400.0 mg/kg/injection, schedule: Q01DX009 (ip), vehicle: Klucel (hydroxypropylcellulose) (HPC)
[8] = dose: 100.0 mg/kg/injection, schedule: Q04DX003 (ip), vehicle: saline
[9] = dose: 200.0 mg/kg/injection, schedule: Q04DX003 (ip), vehicle: saline
[10] = dose: 400.0 mg/kg/injection, schedule: Q04DX003 (ip), vehicle: saline
[11] = dose: 50.0 mg/kg/injection, schedule: Q01DX009 (ip), vehicle: saline
[12] = dose: 100.0 mg/kg/injection, schedule: Q01DX009 (ip), vehicle: saline
[13] = dose: 100.0 mg/kg/injection, schedule: Q01DX001 (ip), vehicle: carboxymethylcellulose (CMC)
[14] = dose: 200.0 mg/kg/injection, schedule: Q01DX001 (ip), vehicle: carboxymethylcellulose (CMC)
[15] = dose: 100.0 mg/kg/injection, schedule: Q04DX003 (ip), vehicle: saline with Tween-80
[16] = dose: 200.0 mg/kg/injection, schedule: Q04DX003 (ip), vehicle: saline with Tween-80

Measured: T/C

CN(C)CC/C=C1\c2ccccc2Sc2ccc(C(F)(F)F)cc21
inactive: dose: 0.78 mg/kg/injection, schedule: Q01DX009 (ip), vehicle: saline 97 % of control | dose: 0.78 mg/kg/injection, schedule: Q04DX003 (ip), vehicle: saline 102 % of control | dose: 1.56 mg/kg/injection, schedule: Q01DX009 (ip), vehicle: saline 105 % of control | dose: 1.56 mg/kg/injection, schedule: Q04DX003 (ip), vehicle: saline 105 % of control | [1] 115 % of control | dose: 3.12 mg/kg/injection, schedule: Q04DX003 (ip), vehicle: saline 100 % of control | dose: 6.0 mg/kg/injection, schedule: Q01DX Z (ip), vehicle: carboxymethylcellulose (CMC) 111 % of control | dose: 6.25 mg/kg/injection, schedule: Q04DX003 (ip), vehicle: saline 107 % of control | [2] 103 % of control and 108 % of control | dose: 9.0 mg/kg/injection, schedule: Q01DX Z (ip), vehicle: other 110 % of control | [3] 122 % of control | dose: 12.5 mg/kg/injection, schedule: Q04DX003 (ip), vehicle: saline 105 % of control | dose: 14.0 mg/kg/injection, schedule: Q01DX Z (ip), vehicle: carboxymethylcellulose (CMC) 100 % of control and 111 % of control | dose: 17.5 mg/kg/injection, schedule: Q01DX001 (ip), vehicle: saline 114 % of control | dose: 21.0 mg/kg/injection, schedule: Q01DX Z (ip), vehicle: carboxymethylcellulose (CMC) 103 % of control | dose: 21.0 mg/kg/injection, schedule: Q01DX Z (ip), vehicle: other 110 % of control | dose: 31.0 mg/kg/injection, schedule: Q01DX Z (ip), vehicle: carboxymethylcellulose (CMC) 110 % of control | dose: 35.0 mg/kg/injection, schedule: Q01DX001 (ip), vehicle: saline 104 % of control | [4] 120 % of control | dose: 70.0 mg/kg/injection, schedule: Q01DX001 (ip), vehicle: saline 108 % of control | dose: 140.0 mg/kg/injection, schedule: Q01DX001 (ip), vehicle: saline 123 % of control

CC(=O)OCCS(=O)(=O)CCc1ccccc1
inactive: dose: 62.5 mg/kg/injection, schedule: Q01DX009 (ip), vehicle: Klucel (hydroxypropylcellulose) (HPC) 96 % of control | dose: 125.0 mg/kg/injection, schedule: Q01DX009 (ip), vehicle: Klucel (hydroxypropylcellulose) (HPC) 100 % of control | dose: 250.0 mg/kg/injection, schedule: Q01DX009 (ip), vehicle: Klucel (hydroxypropylcellulose) (HPC) 98 % of control

Cc1cccc(C)c1NC(=O)Oc1ccc(Cl)cc1Cc1ccccc1
inactive: [5] 88 % of control | [6] 88 % of control | [7] 102 % of control

Nc1cccc(CC(N)C(=O)O)c1 (stereo not drawn)
inactive: [8] 100 % of control | [9] 93 % of control | [10] 100 % of control

CC(C)NCCC(=O)c1ccc(OCc2ccccc2)cc1
inactive: dose: 25.0 mg/kg/injection, schedule: Q01DX009 (ip), vehicle: saline 106 % of control | [11] 110 % of control | [12] 106 % of control and 119 % of control

CC(O)c1nc2ccccc2n1C (stereo not drawn)
inactive: dose: 333.0 mg/kg/injection, schedule: Q01DX Z (ip), vehicle: saline 118 % of control | dose: 500.0 mg/kg/injection, schedule: Q01DX Z (ip), vehicle: saline 98 % of control

CC(=O)Oc1c2sccc2cc2ccsc12
inactive: dose: 100.0 mg/kg/injection, schedule: Q01DX001 (ip), vehicle: saline with Tween-80 97 % of control | dose: 200.0 mg/kg/injection, schedule: Q01DX001 (ip), vehicle: saline with Tween-80 92 % of control | dose: 400.0 mg/kg/injection, schedule: Q01DX001 (ip), vehicle: saline with Tween-80 92 % of control

OC1CN(C2CCCCC2)C1
inactive: [8] 98 % of control

CC1=CC2=NC(=O)C(c3ccccc3)C(=O)N2C=C1 (stereo not drawn)
inactive: [5] 90 % of control | dose: 100.0 mg/kg/injection, schedule: Q04DX003 (ip), vehicle: Klucel (hydroxypropylcellulose) (HPC) 90 % of control | [6] 100 % of control | dose: 200.0 mg/kg/injection, schedule: Q04DX003 (ip), vehicle: Klucel (hydroxypropylcellulose) (HPC) 103 % of control | [7] 86 % of control | dose: 400.0 mg/kg/injection, schedule: Q04DX003 (ip), vehicle: Klucel (hydroxypropylcellulose) (HPC) 97 % of control

CC(C)(C)C1=CC(=O)C(C(C)(C)C)=CC1=O
inactive: dose: 50.0 mg/kg/injection, schedule: Q01DX009 (ip), vehicle: saline with Tween-80 104 % of control | dose: 100.0 mg/kg/injection, schedule: Q01DX009 (ip), vehicle: saline with Tween-80 98 % of control | dose: 200.0 mg/kg/injection, schedule: Q01DX009 (ip), vehicle: saline with Tween-80 95 % of control

CN(C)c1ccccc1C(=O)N/N=C\c1ccc(-c2ccccc2)cc1
inactive: dose: 100.0 mg/kg/injection, schedule: Q04DX002 (ip), vehicle: Klucel (hydroxypropylcellulose) (HPC) 87 % of control | dose: 200.0 mg/kg/injection, schedule: Q04DX002 (ip), vehicle: Klucel (hydroxypropylcellulose) (HPC) 100 % of control | dose: 400.0 mg/kg/injection, schedule: Q04DX002 (ip), vehicle: Klucel (hydroxypropylcellulose) (HPC) 117 % of control

Nc1ccc(S(=O)(=O)CI)cc1
inactive: [13] 100 % of control | [14] 92 % of control

COC(=O)CC1C(C)(C)C(=O)C2CC3=C4CC(=O)OC(c5ccoc5)C4(C)CCC3C1(C)C2=O (stereo not drawn)
inactive: [13] 97 % of control | [14] 92 % of control | dose: 400.0 mg/kg/injection, schedule: Q01DX001 (ip), vehicle: carboxymethylcellulose (CMC) 90 % of control

O=C(Nc1c[nH]c(=O)[nH]c1=O)C(F)(F)F
inactive: [11] 100 % of control | [4] 103 % of control | [12] 96 % of control | [8] 104 % of control | dose: 200.0 mg/kg/injection, schedule: Q01DX009 (ip), vehicle: saline 92 % of control | [9] 108 % of control

CC(=O)OCCN1CC1
inactive: [1] 116 % of control | dose: 6.25 mg/kg/injection, schedule: Q01DX009 (ip), vehicle: saline 122 % of control | [3] 118 % of control

C#CC(NCCC(C)CC(C)(C)C)C(C)C (stereo not drawn)
inactive: [15] 103 % of control | [16] 90 % of control

CN(N=O)C(=O)NCc1ccc(Cl)cc1
inactive: [2] 108 % of control | dose: 18.0 mg/kg/injection, schedule: Q01DX Z (ip), vehicle: carboxymethylcellulose (CMC) 91 % of control | dose: 37.0 mg/kg/injection, schedule: Q01DX Z (ip), vehicle: carboxymethylcellulose (CMC) 101 % of control | dose: 75.0 mg/kg/injection, schedule: Q01DX Z (ip), vehicle: carboxymethylcellulose (CMC) 111 % of control | dose: 100.0 mg/kg/injection, schedule: Q01DX Z (ip), vehicle: carboxymethylcellulose (CMC) 109 % of control | dose: 150.0 mg/kg/injection, schedule: Q01DX Z (ip), vehicle: carboxymethylcellulose (CMC) 118 % of control | dose: 200.0 mg/kg/injection, schedule: Q01DX Z (ip), vehicle: carboxymethylcellulose (CMC) 119 % of control

CC(C)(OC(=O)C(NC=O)C(C)(C)S)OC(=O)C(NC=O)C(C)(C)S (stereo not drawn)
inactive: [15] 98 % of control | [16] 95 % of control | dose: 400.0 mg/kg/injection, schedule: Q04DX003 (ip), vehicle: saline with Tween-80 100 % of control

O=C(OCCO)c1ccccc1O
inactive: dose: 75.0 mg/kg/injection, schedule: Q01DX009 (ip), vehicle: saline sonified 102 % of control | [8] 102 % of control | dose: 150.0 mg/kg/injection, schedule: Q01DX009 (ip), vehicle: saline sonified 116 % of control | [9] 98 % of control | dose: 300.0 mg/kg/injection, schedule: Q01DX009 (ip), vehicle: saline sonified 108 % of control | [10] 102 % of control

Source: PubChem BioAssay AID248 (DTP/NCI, 2004)
